Calls of active or inactive are those of the source. The calls are words filed in the database; no cut-off is given here.
Tests used:
[1] = target: Beta-2 adrenergic receptor (Cavia porcellus, UniProt Q8K4Z4); test: Agonist activity at guinea pig trachea beta2-adrenergic receptor assessed as relaxation of histamine-induced tracheal ring contraction
[2] = target: 3',5'-cyclic-AMP phosphodiesterase 4B (Homo sapiens, UniProt Q07343); test: Inhibition of human recombinant PDE4B2 assessed as inhibition of cAMP hydrolysis by colorimetric assay
[3] = target: Beta-2 adrenergic receptor (Cavia porcellus) (UniProt Q8K4Z4); test: Agonist activity at guinea pig trachea beta2-adrenergic receptor assessed as relaxation of histamine-induced tracheal ring contraction in presence of ICI-118551
Sequence of Beta-2 adrenergic receptor (Cavia porcellus) (Q8K4Z4 whole entry, looked up): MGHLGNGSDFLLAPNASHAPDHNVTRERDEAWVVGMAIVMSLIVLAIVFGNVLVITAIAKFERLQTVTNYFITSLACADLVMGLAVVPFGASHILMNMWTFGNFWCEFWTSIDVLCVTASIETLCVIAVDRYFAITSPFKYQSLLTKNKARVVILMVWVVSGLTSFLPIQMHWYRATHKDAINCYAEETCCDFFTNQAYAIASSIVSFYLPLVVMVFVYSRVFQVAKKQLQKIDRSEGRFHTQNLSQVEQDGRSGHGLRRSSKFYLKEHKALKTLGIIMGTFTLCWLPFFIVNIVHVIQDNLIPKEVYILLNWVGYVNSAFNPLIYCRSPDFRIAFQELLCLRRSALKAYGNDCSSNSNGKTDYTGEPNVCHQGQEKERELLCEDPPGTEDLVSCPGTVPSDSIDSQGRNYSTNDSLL

Sequence of 3',5'-cyclic-AMP phosphodiesterase 4B (Q07343 whole entry): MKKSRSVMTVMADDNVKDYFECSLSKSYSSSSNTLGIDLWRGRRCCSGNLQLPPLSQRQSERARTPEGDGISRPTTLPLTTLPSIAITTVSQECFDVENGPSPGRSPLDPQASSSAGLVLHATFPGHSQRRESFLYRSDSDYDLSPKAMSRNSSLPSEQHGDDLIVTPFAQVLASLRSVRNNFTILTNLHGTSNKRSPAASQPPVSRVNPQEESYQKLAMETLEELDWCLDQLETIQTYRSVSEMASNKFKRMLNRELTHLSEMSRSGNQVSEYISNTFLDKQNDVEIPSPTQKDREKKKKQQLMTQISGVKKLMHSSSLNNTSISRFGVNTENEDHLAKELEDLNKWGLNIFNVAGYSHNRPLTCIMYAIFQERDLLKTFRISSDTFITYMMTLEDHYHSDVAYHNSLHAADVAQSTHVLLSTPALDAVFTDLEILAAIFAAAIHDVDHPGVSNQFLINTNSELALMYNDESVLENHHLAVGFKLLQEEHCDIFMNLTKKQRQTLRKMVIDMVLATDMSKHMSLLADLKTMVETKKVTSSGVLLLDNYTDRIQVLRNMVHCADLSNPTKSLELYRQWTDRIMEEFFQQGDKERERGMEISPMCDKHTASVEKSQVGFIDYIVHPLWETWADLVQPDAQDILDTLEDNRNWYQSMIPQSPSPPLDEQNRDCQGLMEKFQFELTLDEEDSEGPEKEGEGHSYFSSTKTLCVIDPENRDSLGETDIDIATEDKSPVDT
Sequence of Beta-2 adrenergic receptor (Q8K4Z4 whole entry): as the sequence (Q8K4Z4 whole entry, looked up) above

SMILES | EC50 [1] | IC50 [2] | Activity [3]
COc1ccc(C2=NN(CCCCCOc3ccc(CC(C)NCC(O)c4ccc(O)c(NC=O)c4)cc3)C(=O)C3CCCCC23)cc1OC (centres undefined) | 12.6 nM | 118 nM | 
COc1ccc(C2=NN(CCCCCCOc3ccc(CC(C)NCC(O)c4ccc(O)c(NC=O)c4)cc3)C(=O)C3CCCCC23)cc1OC (racemic) | 5.02 nM | 104 nM | 
COc1ccc(C2=NN(CCCCOc3ccc(CC(C)NCC(O)c4ccc(O)c(NC=O)c4)cc3)C(=O)C3CCCCC23)cc1OC (centres undefined) | 10.3 nM | 117 nM | 
COc1ccc(C2=NN(CCCCCCOc3ccc(C[C@@H](C)NC[C@H](O)c4ccc(O)c(NC=O)c4)cc3)C(=O)C3CCCCC23)cc1OC (some centres undefined) | 1.05 nM | 92 nM | Active
